Results taken from ChEMBL document CHEMBL4373705, “Design and synthesis of sulfonamidophenylethylamides as novel cardiac myosin activator” (2019).

Key:
Rattus norvegicus [1] = organism: Rattus norvegicus; assay: Activation of myosin ATPase activity in Sprague-Dawley rat ventricular myocytes assessed as increase in ventricular cell shortening by measuring change in ventricular cell contractility at 5 uM by electrophysiology relative to control
Bos taurus = organism: Bos taurus; assay: Activation of bovine cardiac actin thin filament complex-stimulated myosin S1 ATPase activity assessed as inorganic phosphate liberated at 10 uM incubated for 10 mins in presence of ATP by spectrophotometry relative to control
Gallus gallus = organism: Gallus gallus; assay: Activation of chicken gizzard muscle actin and tropomyosin-stimulated myosin S1 ATPase activity assessed as inorganic phosphate liberated at 100 uM incubated for 10 mins in presence of ATP by spectrophotometry relative to control
Rattus norvegicus [2] = assay: Positive […] activity in Sprague-Dawley rat assessed as increase in ejection fraction at 16 ug/kg/min, iv for 3 mins by echocardiography relative to control; format: functional
Oryctolagus cuniculus = organism: Oryctolagus cuniculus; assay: Activation of rabbit skeletal muscle actin thin filament complex-stimulated myosin S1 ATPase activity assessed as inorganic phosphate liberated at 100 uM incubated for 10 mins in presence of ATP by spectrophotometry relative to control
Rattus norvegicus [3] = assay: Positive […] activity in Sprague-Dawley rat assessed as increase in fractional shortening at 16 ug/kg/min, iv for 3 mins by echocardiography relative to control; format: functional
Rattus norvegicus [4] = organism: Rattus norvegicus; assay: Activation of myosin ATPase activity in Sprague-Dawley rat ventricular myocytes assessed as increase in ventricular cell shortening by measuring change in ventricular cell contractility at 1 uM by electrophysiology relative to control

SMILES | Activity (Bos taurus) | Activity (Rattus norvegicus [2]) | Activity (Rattus norvegicus [3]) | other results
CN(CCc1ccc(S(=O)(=O)N(C)C)cc1)C(=O)NCCCc1ccccc1 | 52.3% |  |  | Activity (Rattus norvegicus [1]): 45.5%
CN(C)S(=O)(=O)c1ccc(CNC(=O)CCCCc2ccccc2)cc1 | 20% |  |  | 
CN(CCCc1ccccc1)C(=O)CCCc1ccc(S(=O)(=O)N(C)C)cc1 | 55% | 14.08% | 24.69% | Activity (Rattus norvegicus [1]): 46.5%; Activity (Gallus gallus): -3.4%; Activity (Oryctolagus cuniculus): 2.3%
O=C(NCCCc1ccccc1)NCCc1ccccc1 | 51.1% |  |  | 
O=C(CCCCc1ccccc1)NCCc1ccccc1F | 43.3% |  |  | 
CCN(CCc1ccc(S(=O)(=O)N(C)C)cc1)C(=O)CCCCc1ccccc1 | 13.9% |  |  | 
CN(C)S(=O)(=O)c1ccc(CCNC(=O)CCCCc2ccccc2)cc1 | 59% | 9.75% | 14.85% | Activity (Rattus norvegicus [1]): 18.6%; Activity (Gallus gallus): 3%; Activity (Oryctolagus cuniculus): -2.8%
COc1ccccc1CCNC(=O)CCCCc1ccccc1 | 57.4% | 9.18% | 13.06% | 
O=C(CCCCc1ccccc1)NCCc1ccccc1 | 39.1% | 13.97% | 22.8% | Activity (Rattus norvegicus [1]): 21.3%; Activity (Gallus gallus): -2.8%; Activity (Oryctolagus cuniculus): -2.9%
O=C(CCCCc1ccccc1)NC1Cc2ccccc2C1 | 31.1% |  |  | 
CN(CCc1ccc(S(=O)(=O)N(C)C)cc1)C(=O)CCCCc1ccccc1 | 48.5% | 15.28% | 26.21% | Activity (Rattus norvegicus [1]): 88.2%; Activity (Gallus gallus): 5.2%; Activity (Oryctolagus cuniculus): -4.8%
NS(=O)(=O)c1ccc(CCNC(=O)CCCCc2ccccc2)cc1 | 78.7% | 2.7% | 4.48% | 
Cc1ccc(CCNC(=O)CCCCc2ccccc2)cc1 | 62.9% |  |  | 
CN(CCc1ccc(S(=O)(=O)N2CCOCC2)cc1)C(=O)CCCCc1ccccc1 | 14.9% |  |  | 
O=C(CCCCc1ccccc1)NCc1ccccc1 | 33.1% |  |  | 
Cc1ccc2c(c1)C(=O)[C@]1(O)CCN(c3ccccc3)C1=N2 |  |  |  | Activity (Gallus gallus): -35.7%; Activity (Oryctolagus cuniculus): -50.7%

SMILES | Activity (Bos taurus) | Activity (Rattus norvegicus [2]) | Activity (Rattus norvegicus [3]) | other results
CCN(Cc1ccc(S(=O)(=O)N(C)C)cc1)C(=O)CCCCc1ccccc1 | 17.5% |  |  | 
CN(C)S(=O)(=O)c1ccc(CCCC(=O)N2CCC(c3ccccc3)CC2)cc1 | 29.5% |  |  | 
CN(C)S(=O)(=O)c1ccc(CCNC(=O)NCCCc2ccccc2)cc1 | 91.6% |  |  | Activity (Rattus norvegicus [1]): 47.9%
NS(=O)(=O)c1ccc(CNC(=O)CCCCc2ccccc2)cc1 | 44.4% |  |  | 
CNS(=O)(=O)c1ccc(CN(C)C(=O)CCCCc2ccccc2)cc1 | 55.9% | 9.95% | 15.75% | 
COC(=O)N1CCN(Cc2cccc(NC(=O)Nc3ccc(C)nc3)c2F)CC1 | 58% |  |  | Activity (Gallus gallus): -5.5%; Activity (Oryctolagus cuniculus): 2.8%; Activity (Rattus norvegicus [4]): 33.8%
CN(C)S(=O)(=O)c1ccc(CCCC(=O)NCCCc2ccccc2)cc1 | 50.3% | 11.65% | 17.55% | Activity (Rattus norvegicus [1]): 20.5%; Activity (Gallus gallus): 4.1%; Activity (Oryctolagus cuniculus): -1.9%
CN(C)S(=O)(=O)c1ccc(CCCC(=O)N2CCN(c3ccccc3)CC2)cc1 | 14% |  |  | 
COc1ccc(CCNC(=O)CCCCc2ccccc2)cc1OC | 71.6% | 8.19% | 11.83% | 
O=C(CCCc1ccccc1)NCCCc1ccccc1 | 62% | 9.08% | 13.85% | 
CN(CCCc1ccccc1)C(=O)NCCc1ccc(S(=O)(=O)N(C)C)cc1 | 47.6% |  |  | Activity (Rattus norvegicus [1]): 63.5%
O=C(NCCCc1ccccc1)NCc1ccccc1 | 53.3% |  |  | 
CNS(=O)(=O)c1ccc(CCN(C)C(=O)CCCCc2ccccc2)cc1 | 46.5% | 9.22% | 13.51% | 
CN(Cc1ccc(S(=O)(=O)N(C)C)cc1)C(=O)CCCCc1ccccc1 | 24.1% |  |  | 
CCN(CC)S(=O)(=O)c1ccc(CCN(C)C(=O)CCCCc2ccccc2)cc1 | 17.9% |  |  | 
